Data reported in ChEMBL document CHEMBL5321279 (J Med Chem, 2023).
The source made the active and inactive calls. The rule behind the calls is not given here.

Experiments:
[1] = Cytotoxicity against human NHBE-T cells assessed as reduction in cell growth measured after 5 days by CellTiter-Glo assay; type: toxicity, cell-based; conditions: NHBE-T cells, time 5 day
SARS-CoV-2 [2] = assay: Antiviral activity against SARS-CoV-2 Delta (B.1.617.2) infected in human A549-hACE2-TMPRSS2 cells assessed as fold reduction in viral replication pre-incubated with compound followed by viral infection measured after 48 hrs by ELISA assay relative to SARS-CoV-2 WA1; type: functional, Severe acute respiratory syndrome coronavirus 2
SARS-CoV-2 [3] = assay: Antiviral activity against SARS-CoV-2 Omicron BA.1 infected in human A549-hACE2-TMPRSS2 cells assessed as fold reduction in viral replication pre-incubated with compound followed by viral infection measured after 72 hrs by ELISA assay relative to SARS-CoV-2 WA1; type: functional, Severe acute respiratory syndrome coronavirus 2
SARS-CoV-2 [4] = assay: Antiviral activity against SARS-CoV-2 Omicron BA.2 infected in human A549-hACE2-TMPRSS2 cells assessed as fold reduction in viral replication pre-incubated with compound followed by viral infection measured after 72 hrs by ELISA assay relative to SARS-CoV-2 WA1; type: functional, Severe acute respiratory syndrome coronavirus 2
SARS-CoV-2 [5] = assay: Antiviral activity against SARS-CoV-2 Omicron BA.2.12.1 infected in human A549-hACE2-TMPRSS2 cells assessed as fold reduction in viral replication pre-incubated with compound followed by viral infection measured after 72 hrs by ELISA assay relative to SARS-CoV-2 WA1; type: functional, Severe acute respiratory syndrome coronavirus 2
SARS-CoV-2 [6] = assay: Antiviral activity against SARS-CoV-2 Omicron BA.4 infected in human A549-hACE2-TMPRSS2 cells assessed as fold reduction in viral replication pre-incubated with compound followed by viral infection measured after 72 hrs by ELISA assay relative to SARS-CoV-2 WA1; type: functional, Severe acute respiratory syndrome coronavirus 2
SARS-CoV-2 [7] = assay: Antiviral activity against SARS-CoV-2 Omicron BA.5 infected in human A549-hACE2-TMPRSS2 cells assessed as fold reduction in viral replication pre-incubated with compound followed by viral infection measured after 72 hrs by ELISA assay relative to SARS-CoV-2 WA1; type: functional, Severe acute respiratory syndrome coronavirus 2
SARS-CoV-2 [8] = assay: Antiviral activity against SARS-CoV-2 Omicron BA.4.6 infected in human A549-hACE2-TMPRSS2 cells assessed as fold reduction in viral replication pre-incubated with compound followed by viral infection measured after 72 hrs by ELISA assay relative to SARS-CoV-2 WA1; type: functional, Severe acute respiratory syndrome coronavirus 2
SARS-CoV-2 [9] = assay: Antiviral activity against SARS-CoV-2 Omicron BF.5 infected in human A549-hACE2-TMPRSS2 cells assessed as fold reduction in viral replication pre-incubated with compound followed by viral infection measured after 72 hrs by ELISA assay relative to SARS-CoV-2 WA1; type: functional, Severe acute respiratory syndrome coronavirus 2
[10] = Cmax in African green monkey infected with SARS-CoV-2 assessed as prodrug conversion by measuring (2R,3R,4S,5R)-2-(4-aminopyrrolo[2,1-f][1,2,4]triazin-7-yl)-3,4-dihydroxy-5-(hydroxymethyl)tetrahydrofuran-2-carbonitrile at 10 mg/kg, iv qd administered for day 1 followed by 5 mg/kg administration measured after 6 days by LC-MS/MS analysis; type: ADME, organism-based, Severe acute respiratory syndrome coronavirus 2; parameters: dose 10 mg/kg, time 6 day, route iv; conditions: in vivo
PC-3 [11] = assay: Inhibition of mitochondrial protein synthesis in human PC-3 cells at 100 uM incubated for 5 days; type: functional, cell-based; conditions: time 5.0 day
PC-3 [12] = assay: Inhibition of mitochondrial respiration in human PC-3 cells at 100 uM incubated for 3 days; type: functional, cell-based; conditions: time 3.0 day
[13] = Thermodynamic aqueous solubility at pH 2 measured at 72 hrs by UPLC analysis; type: physicochemical; conditions: aqueous solution, read-out: Therm_solubility
Huh-7 = assay: Cytotoxicity against human Huh-7 cells assessed as reduction in cell growth measured after 5 days by CellTiter-Glo assay; type: toxicity, cell-based; conditions: huh-7, 120 h, time 5 day
MRC5 = assay: Cytotoxicity against human MRC5 cells assessed as reduction in cell growth measured after 5 days by CellTiter-Glo assay; type: toxicity, cell-based; conditions: mrc5, 120 h, time 5 day
[14] = Drug metabolism in human A549-ACE2 cells assessed as Nucleotide triphosphate metabolite formation at 10 uM measured after 48 hrs by LC-MS analysis; type: ADME, cell-based; conditions: a549-ace2, 48 h
[15] = Drug metabolism in human NHBE-T cells assessed as fold increase in Nucleotide triphosphate metabolite formation at 10 uM measured after 48 hrs by LC-MS analysis; type: ADME, cell-based
[16] = Stability of compound in cynomolgus monkey plasma assessed as half life measured upto 4 hrs by LC-MS/MS analysis; type: ADME, cell-free, Macaca fascicularis
[17] = Stability of compound in human plasma assessed as half life measured upto 4 hrs by LC-MS/MS analysis; type: ADME, cell-free
[18] = AUC(0 to 24 hrs) in African green monkey at 86.5 mg/kg, po measured upto 24 hrs by LC-MS/MS analysis; type: ADME, organism-based; parameters: dose 86.5 mg/kg, time < 24 hrs, route po; conditions: chlorocebus sabaeus, in vivo
[19] = Oral bioavailability in African green monkey assessed as prodrug conversion by measuring (2R,3R,4S,5R)-2-(4-aminopyrrolo[2,1-f][1,2,4]triazin-7-yl)-3,4-dihydroxy-5-(hydroxymethyl)tetrahydrofuran-2-carbonitrile at […] measured upto 24 hrs by LC-MS/MS analysis; type: ADME, organism-based; conditions: chlorocebus sabaeus, in vivo
[20] = Oral bioavailability in African green monkey assessed as prodrug conversion by measuring (2R,3R,4S,5R)-2-(4-aminopyrrolo[2,1-f][1,2,4]triazin-7-yl)-3,4-dihydroxy-5-(hydroxymethyl)tetrahydrofuran-2-carbonitrile at 86.5 mg/kg measured upto 24 hrs by LC-MS/MS analysis; type: ADME, organism-based; conditions: chlorocebus sabaeus, in vivo
[21] = Oral bioavailability in dog assessed as prodrug conversion by measuring (2R,3R,4S,5R)-2-(4-aminopyrrolo[2,1-f][1,2,4]triazin-7-yl)-3,4-dihydroxy-5-(hydroxymethyl)tetrahydrofuran-2-carbonitrile at […] administered in solid form measured upto 24 hrs by LC-MS/MS analysis; type: ADME, organism-based, Canis lupus familiaris; conditions: in vivo
[22] = Drug metabolism in human NHBE-T cells assessed as Nucleotide triphosphate metabolite formation at 10 uM measured after 48 hrs by LC-MS analysis; type: ADME, cell-based
SARS-CoV-2 [23] = assay: Antiviral activity against SARS-CoV-2 infected in African green monkey assessed as reduction in viral genomic RNA load in throat swabs at 60 to 120 mg/kg, po qd administered for 6 days starting from 8 hrs post infection by RT-qPCR analysis; type: functional, organism-based; conditions: Severe acute respiratory syndrome coronavirus 2, dose lower 60.0 mg/kg, dose upper […], time 6.0 day
SARS-CoV-2 [24] = assay: Antiviral activity against SARS-CoV-2 infected in African green monkey assessed as reduction in viral genomic RNA load in nasal swabs at 60 to 120 mg/kg, po qd administered for 4 days starting from 8 hrs post infection by RT-qPCR analysis; type: functional, organism-based; conditions: Severe acute respiratory syndrome coronavirus 2, dose lower 60.0 mg/kg, dose upper […], time 4.0 day
[25] = AUC(0 to 24 hrs) in African green monkey infected with SARS-CoV-2 assessed as prodrug conversion by measuring (2R,3R,4S,5R)-2-(4-aminopyrrolo[2,1-f][1,2,4]triazin-7-yl)-3,4-dihydroxy-5-(hydroxymethyl)tetrahydrofuran-2-carbonitrile at 60 mg/kg, po qd measured after 6 days by LC-MS/MS analysis; type: ADME, organism-based, Severe acute respiratory syndrome coronavirus 2; parameters: time 6 day, dose 60 mg/kg, route po; conditions: in vivo
[26] = Prodrug conversion in SARS-CoV-2 infected in African green monkey assessed as (2R,3R,4S,5R)-2-(4-aminopyrrolo[2,1-f][1,2,4]triazin-7-yl)-3,4-dihydroxy-5-(hydroxymethyl)tetrahydrofuran-2-carbonitrile mediated log10 reduction of genomic RNA at 60 mg/kg, po qd measured after 6 days by RT-qPCR analysis; type: ADME, organism-based, Severe acute respiratory syndrome coronavirus 2; conditions: in vivo, time 6 day

Row | Structure (SMILES) | CC50 at 120 h [1] [µM] | fold change (FC) (SARS-CoV-2 [2]) | fold change (FC) (SARS-CoV-2 [3]) | fold change (FC) (SARS-CoV-2 [4]) | fold change (FC) (SARS-CoV-2 [5]) | fold change (FC) (SARS-CoV-2 [6]) | fold change (FC) (SARS-CoV-2 [7]) | fold change (FC) (SARS-CoV-2 [8]) | fold change (FC) (SARS-CoV-2 [9]) | inhibition (PC-3 [11]) | inhibition (PC-3 [12]) | solubility thermodynamic at 72 h [13] [mg/mL] | CC50 (Huh-7) [µM] | CC50 (MRC5) [µM] | Drug metabolism [14] | Drug metabolism [15] | further results
1 | CCC(CC)COC(=O)[C@H](C)N[P@](=O)(OC[C@H]1O[C@@](C#N)(c2ccc3c(N)ncnn23)[C@H](O)[C@@H]1O)Oc1ccccc1 | > 50 | 0.59 | 0.45 | 0.23 | 0.2 | 0.15 | 0.66 | 0.64 | 0.94 |  |  |  |  |  |  |  | Cmax [10]: 1230 nM
2 | N#C[C@@]1(c2ccc3c(N)ncnn23)O[C@H](CO)[C@@H](O)[C@H]1O [GS-441524] |  |  |  |  |  |  |  |  |  | inactive | inactive | ≤ 1 | > 89 | > 89 | Metabolite_Detected | Metabolite_Detected | fold change (FC) [15]: > 3
3 | CC(C)C(=O)OC[C@H]1O[C@@](C#N)(c2ccc3c(N)ncnn23)[C@H](O)[C@@H]1O [OBELDESIVIR] | > 50 | 0.72 | 0.32 | 0.37 | 0.29 | 0.26 | 0.83 | 0.62 | 0.8 | inactive | inactive | ≥ 40 | > 44 | > 44 | Metabolite_Detected | Metabolite_Detected | half-life [16]: 9.7 min; half-life [17]: 29 min; AUC [18]: 0.68 µM·h; F [19]: 31%; F [20]: 27%; F [21]: 67%; Drug metabolism [22]: Metabolite_Detected; Activity (SARS-CoV-2 [23]): Active; Activity (SARS-CoV-2 [24]): Active; AUC [25]: 111 µM·h; log(activity) [26]: -1.41
